Source: patent US20140343145A1, “RBP1 as a Molecular Biomarker for Predicting Survival and Response to Treatment in Glioma” (The Regents of the University of California, priority 2011, published 2014)
Entries after “also recorded” stand apart in the source; their conditions may differ.

Legend:
[1] = system: unselected glioma patients; settings: patients not selected for any biomarker/mutation (Yung 1996); cited from earlier work
[2] = system: primary glioblastoma multiforme patients; assay: Kaplan-Meier analysis of overall survival in the GBM Survival Cohort (124 primary glioblastoma patients) by RBP1 methylation and isotretinoin treatment; format: in vivo, human
From the text: FIGS. 10A-10B show the Kaplan-Meier analysis of overall survival (OS) in a cohort of 124 primary glioblastoma mulitforme patients with respect to RBP1 methylation and isotretinoin (ITR) treatment. FIG. 10A provides RBP1-unmethylated patients treated (solid, n=19) vs untreated with isotretinoin (dotted, n=83). FIG. 10B provides RBP1-methylated patients treated (solid, n=7) and untreated with isotretinoin (dotted, n=15). RBP1=retinol binding protein 1; WT=wild-type; MUT=mutant; ITR=isotretinoin.
Within the 198-patient Total Cohort, 124 samples that were obtained from treatment-naïve primary GBM patients with detailed clinical information were retrospectively identified. Patients were treated with a combination of radiation (RT) and temozolomide (TMZ) after surgical resection (Stupp R, et al. N Engl J Med 2005; 352(10):987-96). Overall survival (OS) was defined as the date of diagnosis to date of death from any cause. For patients lost to follow-up without obtainable date of death, censoring date was last clinic visit or contact. If the last clinic or contact was after the Sep. 9, 2011 freeze date, the patient was censored at […]. […]
Correlation between IDH1 mutation and RBP1 methylation was determined using the Spearman correlation test. […]

[3] = system: patients with primary glioblastoma; assay: Kaplan-Meier analysis of overall survival in a preliminary cohort of 414 primary glioblastoma patients, with or without upfront isotretinoin; format: in vivo, human
Description: Survival for an unpublished preliminary cohort of 414 patients with primary glioblastoma were analyzed with Kaplan-Meier analysis. Survival curves for patients with wild-type or IDH1/2 mutant genotypes with or without upfront treatment with isotretinoin, in combination with standard-of-care debulking surgery, temozolomide, and radiation therapy, are shown. […] WT=wild-type, MUT=IDH1 MUT, ITR=isotretinoin (13-cis retinoic acid).
Specifically, the median overall survival for IDH1 mutant glioblastoma patients treated with isotretinoin was 81 months as compared with 36 months for similar IDH1 mutant glioblastoma patients who were not treated with isotretinoin. […] Therefore, in some embodiments, the present invention is directed to methods of treating IDH1/IDH2 mutant gliomas in subjects, which comprise administering to the subjects having been diagnosed with an IDH1 and/or an IDH2 mutation and/or RBP1 promoter hypermethylation one or more retinoids.

## CC1=C(/C=C/C(C)=C/C=C/C(C)=C\C(=O)O)C(C)(C)CCC1 [isotretinoin, 13-cis retinoic acid]
[1]
  efficacy in unselected glioma patients: little to only modest efficacy
[2]; RBP1-methylated primary GBM patients who received isotretinoin (n=7), untreated 36.7 months, P=0.53
  median OS (overall survival): 82.5 months
[2]; RBP1-unmethylated primary GBM patients who received adjuvant isotretinoin with temozolomide (n=19), untreated 19.8 months, P=0.25
  median OS (overall survival): 22.0 months
[3]; IDH1 mutant glioblastoma patients treated with isotretinoin, 36 months for similar patients not treated
  median overall survival: 81 months
[3]; upfront isotretinoin with standard-of-care debulking surgery, temozolomide and radiation, patients with IDH1 or IDH2 mutant glioblastoma
  effect on overall survival, IDH1/IDH2 mutant glioblastoma: significantly improve the overall survival; also recorded: significantly increased overall survival
[3]; upfront isotretinoin with standard-of-care debulking surgery, temozolomide and radiation, patients with wild-type tumors (WT)
  effect on overall survival, wild-type tumors: only modest increase in overall survival
